Where a name gives a salt, the structure may show the parent alone.
What was measured:
[1] = biological target: Human CB2R (Cannabinoid receptor 2) (Homo sapiens (Human), UniProt P34972); experiment: CB-2 in vitro cAMP assay (HTRF), inverse agonism; format: cell-based; conditions: mean where tested more than once
[2] = biological target: Human CB1R (Cannabinoid receptor 1) (Homo sapiens (Human), UniProt P21554); experiment: CB-1 in vitro cAMP assay (HTRF), inverse agonism; format: cell-based; conditions: mean where tested more than once
Chain of Human CB1R (Cannabinoid receptor 1) (P21554 whole entry): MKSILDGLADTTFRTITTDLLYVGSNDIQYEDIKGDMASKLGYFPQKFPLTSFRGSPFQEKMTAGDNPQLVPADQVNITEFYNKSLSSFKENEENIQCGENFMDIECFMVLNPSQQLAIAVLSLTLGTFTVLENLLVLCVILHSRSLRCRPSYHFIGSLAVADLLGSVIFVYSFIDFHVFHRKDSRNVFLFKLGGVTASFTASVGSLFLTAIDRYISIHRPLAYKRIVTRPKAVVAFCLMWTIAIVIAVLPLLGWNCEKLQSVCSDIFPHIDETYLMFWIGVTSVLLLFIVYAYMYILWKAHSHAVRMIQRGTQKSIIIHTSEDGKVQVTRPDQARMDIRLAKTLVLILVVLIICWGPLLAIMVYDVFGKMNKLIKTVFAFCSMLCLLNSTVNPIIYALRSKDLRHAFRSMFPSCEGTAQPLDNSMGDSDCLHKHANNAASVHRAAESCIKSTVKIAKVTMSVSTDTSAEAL

Chain of Human CB2R (Cannabinoid receptor 2) (P34972 whole entry): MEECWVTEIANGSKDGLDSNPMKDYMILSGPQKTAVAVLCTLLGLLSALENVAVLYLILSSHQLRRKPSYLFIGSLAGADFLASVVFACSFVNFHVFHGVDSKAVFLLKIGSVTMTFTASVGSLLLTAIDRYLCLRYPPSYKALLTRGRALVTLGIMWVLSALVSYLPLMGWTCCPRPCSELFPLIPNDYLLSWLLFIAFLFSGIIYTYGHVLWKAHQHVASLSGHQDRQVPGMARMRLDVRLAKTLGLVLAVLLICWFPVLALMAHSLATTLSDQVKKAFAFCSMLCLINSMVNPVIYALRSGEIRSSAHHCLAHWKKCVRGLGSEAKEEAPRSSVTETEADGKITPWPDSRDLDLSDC

SMILES | EC50 [1] | EC50 [2]
O=C(O)CCCOc1ccc(Nc2cc(=O)[nH]c3ccc(C(c4ccc(Cl)cc4)c4ccc(Cl)cc4)cc23)cc1 [Compound 121, 4-[4-({6-[Bis(4-chlorophenyl)methyl]-2-oxo-1,2-dihydroquinolin-4-yl}amino)phenoxy]butanoic acid] | > 10000 nM | 1010 nM
O=C(O)c1ccc(Nc2cc(=O)[nH]c3ccc(C(c4ccc(Cl)cc4)c4ccc(Cl)cc4)cc23)cc1 [Compound 86, 4-({6-[Bis(4-chlorophenyl)methyl]-2-oxo-1,2-dihydroquinolin-4-yl}amino)benzoic acid] | > 10000 nM | > 10000 nM
COCCNc1ccc(C(c2ccc(Cl)cc2)c2cc(NCCOC)c3[nH]c(=O)cc(NC4CCN(S(=O)(=O)C(F)(F)F)CC4)c3c2)cc1 (stereo not drawn) [Compound 101, 6-((4-chlorophenyl)(4-((2-methoxyethyl)amino)phenyl)methyl)-8-((2-methoxyethyl)amino)-4-((1-((trifluoromethyl)sulfonyl)piperidin-4-yl)amino)quinolin-2(1H)-one] | 910 nM | 15 nM
OC(c1ccc(Cl)cc1)(c1ccc2nccc(/C=C\c3ccccc3)c2c1)c1cscn1 (mixture of isomers) [Compound 516, (Z)-(4-chlorophenyl)(4-styrylquinolin-6-yl)(thiazol-4-yl)methanol] | 200 nM | 3270 nM
COCCNc1cc(C(c2ccc(Cl)cc2)c2ccc(Cl)cc2)cc2c(NC3CCN(S(=O)(=O)C(F)(F)F)CC3)cc(=O)[nH]c12 [Compound 100, 6-(bis(4-chlorophenyl)methyl)-8-((2-methoxyethyl)amino)-4-((1-((trifluoromethyl)sulfonyl)piperidin-4-yl)amino)quinolin-2(1H)-one] | 200 nM | 6 nM
O=c1cc(/C=C/c2ccc(Cl)cc2)c2cc(C(c3ccccc3)c3ccc(Cl)cc3)ccc2[nH]1 (stereo not drawn) [Compound 34, 4-[(E)-2-(4-Chlorophenyl)ethenyl]-6-[(4-chlorophenyl)(phenyl)methyl]quinolin-2(1H)-one] | > 10000 nM | 1460 nM
O=c1cc(NC2CCN(S(=O)(=O)C(F)(F)F)CC2)c2cc(C(c3ccc(Cl)cc3)c3ccc(C(F)(F)F)cc3)ccc2[nH]1 (stereo not drawn) [Compound 62, 6-{(4-Chlorophenyl)[4-(trifluoromethyl)phenyl]methyl}-4-({1-[(trifluoromethyl)sulfonyl]-piperidin-4-yl}amino)quinolin-2(1H)-one] | 3230 nM | 29 nM
CC(C)(C)OC(=O)N1CC[C@H](Nc2cc(=O)[nH]c3ccc(C(c4ccc(Cl)cc4)c4nccs4)cc23)C1 (stereo partly drawn) [Compound 45, tert-Butyl (3S)-3-({6-[(4-chlorophenyl)(1,3-thiazol-2-yl)methyl]-2-oxo-1,2-dihydroquinolin-4-yl}amino)pyrrolidine-1-carboxylate] | > 10000 nM | 1170 nM
CC(C)(C)Oc1cc(/C=C/c2cccc(F)c2)c2cc(C(O)(c3ccc(Cl)cc3)c3ccsc3)ccc2n1 (stereo not drawn) [Compound 518, (E)-(2-(tert-butoxy)-4-(3-fluorostyryl)quinolin-6-yl)(4-chlorophenyl)(thiophen-3-yl)methanol] | 540 nM | > 10000 nM
O=c1cc(NCc2ccc(C(F)(F)F)cn2)c2cc(C(c3ccc(Cl)cc3)c3ccc(Cl)cc3)ccc2[nH]1 [Compound 78, 6-[Bis(4-chlorophenyl)methyl]-4-({[5-(trifluoromethyl)pyridin-2-yl]methyl}amino)quinolin-2(1H)-one] | > 10000 nM | 168 nM
O=C(O)c1ccc(S(=O)(=O)N2CCC(Nc3cc(=O)[nH]c4ccc(C(c5ccc(Cl)cc5)c5ccc(Cl)cc5)cc34)CC2)s1 [Compound 130, 5-[4-([6-[bis(4-chlorophenyl)methyl]-2-hydroxyquinolin-4-yl]amino)piperidine-1-sulfonyl]thiophene-2-carboxylic acid, trifluoroacetic acid salt] | 690 nM | 113 nM
COCCCc1cc(C(c2ccc(Cl)cc2)c2ccc(Cl)cc2)cc2c(NC3CCN(S(=O)(=O)C(F)(F)F)CC3)cc(=O)[nH]c12 [Compound 140, 6-(bis(4-chlorophenyl)methyl)-8-(3-methoxypropyl)-4-((1-((trifluoromethyl)sulfonyl)piperidin-4-yl)amino)quinolin-2(1H)-one] | 60 nM | 13 nM
O=c1cc(NC2CCN(S(=O)(=O)C(F)(F)F)CC2)c2cc(C(c3ccc(Cl)cc3)c3nc4ccccc4s3)ccc2[nH]1 (stereo not drawn) [Compound 65, 6-[1,3-Benzothiazol-2-yl(4-chlorophenyl)methyl]-4-({1-[(trifluoromethyl)sulfonyl]-piperidin-4-yl}amino)quinolin-2(1H)-one] | 4300 nM | 64 nM
NCCCCOc1cc(C(c2ccc(Cl)cc2)c2ccc(Cl)cc2)cc2c(NC3CCN(S(=O)(=O)C(F)(F)F)CC3)ccnc12 [Compound 542, 8-(4-aminobutoxy)-6-(bis(4-chlorophenyl)methyl)-N-(1-((trifluoromethyl)sulfonyl)piperidin-4-yl)quinolin-4-amine, trifluoroacetic acid salt] | > 10000 nM | 144 nM

Second part, the compound after the results:

EC50 [1] | EC50 [2] | SMILES
> 10000 nM | 213 nM | FC(F)(F)c1ccc(/C=C/c2ccnc3ccc(C(c4ccc(Cl)cc4)c4ccc(Cl)cc4)cc23)cc1 [Compound 521, 6-[Bis(4-chlorophenyl)methyl]-4-{(E)-2-[4-(trifluoromethyl)phenyl]-ethenyl}quinoline]
> 10000 nM | 169 nM | Clc1ccc(C(c2ccc3nccc(/C=C/c4ccccc4)c3c2)c2cscn2)cc1 (stereo not drawn) [Compound 520, 6-[(4-Chlorophenyl)(1,3-thiazol-4-yl)methyl]-4-[(E)-2-phenylethenyl]quinoline]
> 10000 nM | 7 nM | O=c1cc(NCc2ccc(C(F)(F)F)nc2)c2cc(C(c3ccc(Cl)cc3)c3ccc(Cl)cc3)ccc2[nH]1 [Compound #70, 6-(bis(4-chlorophenyl)methyl)-4-(((6-(trifluoromethyl)pyridin-3-yl)methyl)amino)quinolin-2(1H)-one]
> 10000 nM | 6 nM | O=c1cc(NC2CCN(c3ccccc3)CC2)c2cc(C(c3ccc(Cl)cc3)c3ccc(Cl)cc3)ccc2[nH]1 [Compound 60, 6-[bis(4-chlorophenyl)methyl]-4-[(1-phenylpiperidin-4-yl)amino]quinolin-2-ol]
> 10000 nM | 11 nM | O=c1cc(Nc2ccc(Cl)c(F)c2)c2cc(C(c3ccc(Cl)cc3)c3ccc(Cl)cc3)ccc2[nH]1 [Compound 83, 6-[Bis(4-chlorophenyl)methyl]-4-[(4-chloro-3-fluorophenyl)amino]quinolin-2(1H)-one]
> 10000 nM | 45 nM | O=c1cc(NCc2ccc(C(F)(F)F)cc2)c2cc(C(c3ccc(Cl)cc3)c3ccc(Cl)cc3)ccc2[nH]1 [Compound 58, 6-[Bis(4-chlorophenyl)methyl]-4-{[4-(trifluoromethyl)benzyl]amino}-quinolin-2(1H)-one]
6810 nM | 1100 nM | O=c1cc(NC2CCN(S(=O)(=O)C(F)(F)F)CC2)c2cc(C(Cc3ccc(F)cc3)c3ccc(Cl)cc3)ccc2[nH]1 (stereo not drawn) [Compound #135, 6-(1-(4-chlorophenyl)-2-(4-fluorophenyl)ethyl)-4-((1-((trifluoromethyl)sulfonyl)piperidin-4-yl)amino)quinolin-2(1H)-one]
> 10000 nM | 19 nM | CCOC(=O)N1CCC(Nc2cc(=O)[nH]c3ccc(C(c4ccc(Cl)cc4)c4nccs4)cc23)CC1 (stereo not drawn) [Compound 37, Ethyl 4-({6-[(4-chlorophenyl)(1,3-thiazol-2-yl)methyl]-2-oxo-1,2-dihydroquinolin-4-yl}amino)piperidine-1-carboxylate]
6700 nM | 300 nM | Cc1ccc(Nc2cc(=O)[nH]c3ccc(C(c4ccc(Cl)cc4)c4ccc(Cl)cc4)cc23)cn1 [Compound 134, 6-[Bis(4-chlorophenyl)methyl]-4-[(6-methylpyridin-3-yl)amino]quinolin-2(1H)-one]
4500 nM | 28 nM | O=C(c1ccccc1)N1CCC(Nc2cc(=O)[nH]c3ccc(C(c4ccc(Cl)cc4)c4ccc(Cl)cc4)cc23)CC1 [Compound 64, 4-((1-benzoylpiperidin-4-yl)amino)-6-(bis(4-chlorophenyl)methyl)quinolin-2(1H)-one]
> 10000 nM | 426 nM | COc1ccc(C(c2ccc(Cl)cc2)c2ccc3[nH]c(=O)cc(/C=C/c4ccccc4)c3c2)cc1 (stereo not drawn) [Compound 514, (E)-6-((4-chlorophenyl)(4-methoxyphenyl)methyl)-4-styrylquinolin-2(1H)-one]
> 10000 nM | 339 nM | O=S(=O)(N1CCC(Nc2ccnc3c(O)cc(C(c4ccc(Cl)cc4)c4ccc(Cl)cc4)cc23)CC1)C(F)(F)F [Compound 541, 6-(bis(4-chlorophenyl)methyl)-4-((1-((trifluoromethyl)sulfonyl)piperidin-4-yl)amino)quinolin-8-ol]
> 10000 nM | 657 nM | CC(C)(C)OC(=O)N1CC[C@@H](Nc2cc(=O)[nH]c3ccc(C(c4ccc(Cl)cc4)c4nccs4)cc23)C1 (stereo partly drawn) [Compound 46, tert-Butyl (3R)-3-({6-[(4-chlorophenyl)(1,3-thiazol-2-yl)methyl]-2-oxo-1,2-dihydroquinolin-4-yl}amino)pyrrolidine-1-carboxylate]
> 10000 nM | 816 nM | O=c1cc(/C=C/c2ccccc2)c2cc(C(c3ccc(Cl)cc3)c3nccs3)ccc2[nH]1 (stereo not drawn) [Compound 25, (E)-6-((4-chlorophenyl)(thiazol-2-yl)methyl)-4-styrylquinolin-2(1H)-one]
> 10000 nM | 99 nM | NC(=O)COc1ccc(Nc2cc(=O)[nH]c3ccc(C(c4ccc(Cl)cc4)c4ccc(Cl)cc4)cc23)cc1 [Compound 111, 2-(4-((6-(bis(4-chlorophenyl)methyl)-2-oxo-1,2-dihydroquinolin-4-yl)amino)phenoxy)acetamide]
> 10000 nM | 14 nM | O=c1cc(NC2CCN(S(=O)(=O)c3ccccc3)CC2)c2cc(C(c3ccc(Cl)cc3)c3ccc(Cl)cc3)ccc2[nH]1 [Compound 80, 6-[Bis(4-chlorophenyl)methyl]-4-{[1-(phenylsulfonyl)piperidin-4-yl]amino}quinolin-2(1H)-one]

Reference: US9266835B2, “Quinoline derivatives useful as CB-1 inverse agonists” (JANSSEN PHARMACEUTICA NV, priority 2014, dated 2016)
